Measurements reported in publication PMC5943542, “Targeting LMW‐PTP to sensitize melanoma cancer cells toward chemo‐ and radiotherapy” (Cancer Medicine, 2018).

Target: T1, LMW-PTP (recombinant isoforms IF-A and IF-B) (Homo sapiens, UniProt P24666)
T1 construct: gene ACP1; purified recombinant human LMW-PTP, isoform A (IF-A) and isoform B (IF-B)
T1 sequence (P24666 2-158): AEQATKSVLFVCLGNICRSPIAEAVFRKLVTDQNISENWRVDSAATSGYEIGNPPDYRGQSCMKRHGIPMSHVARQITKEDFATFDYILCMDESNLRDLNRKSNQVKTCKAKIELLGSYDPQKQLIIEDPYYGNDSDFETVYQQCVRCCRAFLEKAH
Test: p-nitrophenylphosphate hydrolysis kinetics with purified recombinant enzyme, double reciprocal plots
Assay type: biochemical

## O=c1c(O)c(-c2ccc(O)cc2O)oc2cc(O)cc(O)c12 [Morin]
  Ki: micromolar range
